From paper PMC5564600 (Oncotarget, 2017)

Columns and labels:
Experiment in all cases: biochemical
Type in all cases: binding
panel of 442 kinases [1] = target: T1, panel of 442 kinases (Homo sapiens, UniProt Q9Y2H1); details: kinase NDR2; for remaining activity at 1 µM: read-out: % of control at 1 µM
T1 construct: purchased Ambit Biosciences (scanMAXX KINOMEscan)

panel of 442 kinases [2] = target: T2, panel of 442 kinases (Homo sapiens, UniProt P31152); details: ERK4; for remaining activity at 1 µM: read-out: % of control at 1 µM
T2 construct: purchased Ambit Biosciences (scanMAXX KINOMEscan)

panel of 442 kinases [3] = target: T3, panel of 442 kinases (Homo sapiens, UniProt Q9BVS4); details: kinase RIOK2; for remaining activity at 1 µM: read-out: RIOK2 (% of control at 1 µM)
T3 construct: purchased Ambit Biosciences (scanMAXX KINOMEscan)
T3 sequence (Q9BVS4 whole entry): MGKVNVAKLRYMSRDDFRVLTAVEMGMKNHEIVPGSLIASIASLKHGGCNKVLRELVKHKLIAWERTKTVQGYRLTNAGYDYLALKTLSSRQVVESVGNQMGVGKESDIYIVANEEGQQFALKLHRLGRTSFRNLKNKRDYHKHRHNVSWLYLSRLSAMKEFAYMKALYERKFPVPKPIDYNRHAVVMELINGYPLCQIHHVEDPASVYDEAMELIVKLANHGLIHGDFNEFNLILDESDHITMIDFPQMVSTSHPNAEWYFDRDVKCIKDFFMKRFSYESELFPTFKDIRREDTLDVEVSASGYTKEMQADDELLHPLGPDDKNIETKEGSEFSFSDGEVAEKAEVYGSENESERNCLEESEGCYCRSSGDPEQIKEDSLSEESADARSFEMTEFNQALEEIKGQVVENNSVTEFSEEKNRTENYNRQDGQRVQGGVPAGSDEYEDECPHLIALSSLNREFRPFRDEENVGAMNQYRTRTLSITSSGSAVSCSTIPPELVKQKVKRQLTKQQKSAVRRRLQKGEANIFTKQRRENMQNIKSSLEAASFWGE

panel of 442 kinases [4] = target: T4, panel of 442 kinases (Homo sapiens, UniProt Q9UHD2); details: kinase TBK1; for remaining activity at 1 µM: read-out: TBK1 (% of control at 1 µM)
T4 construct: purchased Ambit Biosciences (scanMAXX KINOMEscan)
T4 sequence (Q9UHD2 1-729): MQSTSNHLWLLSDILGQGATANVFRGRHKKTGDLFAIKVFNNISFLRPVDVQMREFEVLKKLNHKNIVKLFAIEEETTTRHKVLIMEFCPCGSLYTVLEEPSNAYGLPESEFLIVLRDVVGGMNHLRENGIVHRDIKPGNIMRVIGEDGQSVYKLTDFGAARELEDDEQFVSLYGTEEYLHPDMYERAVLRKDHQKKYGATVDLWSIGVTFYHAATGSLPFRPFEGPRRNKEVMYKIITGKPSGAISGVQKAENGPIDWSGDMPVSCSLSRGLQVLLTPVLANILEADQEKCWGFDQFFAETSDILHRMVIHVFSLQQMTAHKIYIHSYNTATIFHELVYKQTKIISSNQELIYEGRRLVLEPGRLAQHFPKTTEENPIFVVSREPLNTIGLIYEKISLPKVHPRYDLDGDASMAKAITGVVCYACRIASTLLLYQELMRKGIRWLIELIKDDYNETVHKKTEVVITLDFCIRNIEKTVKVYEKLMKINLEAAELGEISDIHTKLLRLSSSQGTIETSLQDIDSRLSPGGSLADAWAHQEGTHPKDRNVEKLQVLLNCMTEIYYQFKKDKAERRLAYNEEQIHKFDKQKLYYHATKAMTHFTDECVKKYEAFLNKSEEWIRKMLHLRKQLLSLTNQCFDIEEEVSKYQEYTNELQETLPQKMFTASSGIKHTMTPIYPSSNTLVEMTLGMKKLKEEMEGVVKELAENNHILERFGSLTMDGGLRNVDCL

panel of 442 kinases [5] = target: T5, panel of 442 kinases (Homo sapiens, UniProt P10721, T670I/V559D); details: kinase KIT(V559D,T670I); for remaining activity at 1 µM: read-out: % of control at 1 µM
T5 construct: purchased Ambit Biosciences (scanMAXX KINOMEscan)

panel of 442 kinases [6] = target: T6, panel of 442 kinases (Homo sapiens, UniProt P04626); details: ERBB2; for remaining activity at 1 µM: read-out: % of control at 1 µM
T6 construct: purchased Ambit Biosciences (scanMAXX KINOMEscan)
T6 sequence (P04626 23-1255): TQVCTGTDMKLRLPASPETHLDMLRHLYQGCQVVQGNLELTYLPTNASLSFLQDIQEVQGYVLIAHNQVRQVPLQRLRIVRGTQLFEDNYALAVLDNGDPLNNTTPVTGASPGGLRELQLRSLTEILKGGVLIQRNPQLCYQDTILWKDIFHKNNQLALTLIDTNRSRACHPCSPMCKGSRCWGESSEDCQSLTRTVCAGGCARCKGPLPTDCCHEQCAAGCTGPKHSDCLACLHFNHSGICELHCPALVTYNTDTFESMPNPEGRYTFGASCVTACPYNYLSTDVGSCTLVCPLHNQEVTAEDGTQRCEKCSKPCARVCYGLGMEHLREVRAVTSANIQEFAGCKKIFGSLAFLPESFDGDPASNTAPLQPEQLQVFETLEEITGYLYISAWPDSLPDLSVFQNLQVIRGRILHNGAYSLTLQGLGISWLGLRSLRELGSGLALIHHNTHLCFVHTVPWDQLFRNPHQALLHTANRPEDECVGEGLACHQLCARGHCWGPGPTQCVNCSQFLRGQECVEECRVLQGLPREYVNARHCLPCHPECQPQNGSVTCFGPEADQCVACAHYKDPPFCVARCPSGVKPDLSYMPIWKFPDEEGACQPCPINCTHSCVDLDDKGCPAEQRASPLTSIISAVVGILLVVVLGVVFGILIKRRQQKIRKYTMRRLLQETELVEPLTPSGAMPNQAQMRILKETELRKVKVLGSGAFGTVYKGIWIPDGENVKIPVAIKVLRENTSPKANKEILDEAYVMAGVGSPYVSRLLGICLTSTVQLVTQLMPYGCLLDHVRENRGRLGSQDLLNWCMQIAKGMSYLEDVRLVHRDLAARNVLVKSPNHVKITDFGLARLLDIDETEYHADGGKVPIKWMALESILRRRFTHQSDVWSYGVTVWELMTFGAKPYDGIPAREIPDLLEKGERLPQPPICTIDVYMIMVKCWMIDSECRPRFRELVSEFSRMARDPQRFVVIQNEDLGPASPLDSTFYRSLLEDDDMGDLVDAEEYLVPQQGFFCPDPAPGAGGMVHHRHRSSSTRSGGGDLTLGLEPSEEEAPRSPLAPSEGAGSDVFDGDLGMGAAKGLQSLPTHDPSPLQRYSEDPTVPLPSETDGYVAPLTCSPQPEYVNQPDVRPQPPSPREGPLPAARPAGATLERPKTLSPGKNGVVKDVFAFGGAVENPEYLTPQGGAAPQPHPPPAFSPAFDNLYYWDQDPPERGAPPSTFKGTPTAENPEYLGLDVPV

panel of 442 kinases [7] = target: T7, panel of 442 kinases (Homo sapiens, UniProt P00519, E255K); details: ABL1(E255K)-phosphorylated; for remaining activity at 1 µM: read-out: % of control at 1 µM
T7 construct: purchased Ambit Biosciences (scanMAXX KINOMEscan)
T7 sequence (P00519 whole entry E255K): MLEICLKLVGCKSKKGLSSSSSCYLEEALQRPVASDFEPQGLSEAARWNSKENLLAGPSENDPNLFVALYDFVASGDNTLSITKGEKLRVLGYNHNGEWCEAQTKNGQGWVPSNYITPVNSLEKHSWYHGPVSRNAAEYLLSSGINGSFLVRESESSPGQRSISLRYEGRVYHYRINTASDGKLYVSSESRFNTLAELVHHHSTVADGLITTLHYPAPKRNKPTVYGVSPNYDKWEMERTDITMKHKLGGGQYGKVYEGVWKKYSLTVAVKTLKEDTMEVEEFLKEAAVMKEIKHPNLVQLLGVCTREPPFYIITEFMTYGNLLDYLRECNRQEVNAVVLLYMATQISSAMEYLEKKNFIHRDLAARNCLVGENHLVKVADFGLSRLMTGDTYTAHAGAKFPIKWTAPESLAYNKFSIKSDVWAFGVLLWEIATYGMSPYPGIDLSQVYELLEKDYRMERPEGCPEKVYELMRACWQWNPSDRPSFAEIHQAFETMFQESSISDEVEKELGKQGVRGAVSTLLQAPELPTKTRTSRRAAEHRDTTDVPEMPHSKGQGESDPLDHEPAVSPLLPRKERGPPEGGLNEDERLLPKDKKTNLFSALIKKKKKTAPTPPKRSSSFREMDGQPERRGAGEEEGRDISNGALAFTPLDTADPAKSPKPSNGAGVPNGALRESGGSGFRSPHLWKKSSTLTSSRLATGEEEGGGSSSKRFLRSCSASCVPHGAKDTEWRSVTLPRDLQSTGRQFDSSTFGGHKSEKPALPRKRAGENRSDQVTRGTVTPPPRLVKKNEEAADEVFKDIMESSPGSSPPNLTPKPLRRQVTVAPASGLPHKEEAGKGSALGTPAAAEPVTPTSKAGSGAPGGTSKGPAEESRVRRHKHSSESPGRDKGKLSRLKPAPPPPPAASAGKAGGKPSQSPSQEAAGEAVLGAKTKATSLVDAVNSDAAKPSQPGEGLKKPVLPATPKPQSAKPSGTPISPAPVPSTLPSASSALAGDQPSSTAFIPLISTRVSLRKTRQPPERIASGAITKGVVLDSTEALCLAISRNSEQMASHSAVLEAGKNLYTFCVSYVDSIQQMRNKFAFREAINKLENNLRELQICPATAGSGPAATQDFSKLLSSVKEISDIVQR

panel of 442 kinases [8] = target: T8, panel of 442 kinases (Homo sapiens, UniProt P30530); details: AXL; for remaining activity at 1 µM: read-out: % of control at 1 µM
T8 construct: purchased Ambit Biosciences (scanMAXX KINOMEscan)
T8 sequence (P30530 26-894): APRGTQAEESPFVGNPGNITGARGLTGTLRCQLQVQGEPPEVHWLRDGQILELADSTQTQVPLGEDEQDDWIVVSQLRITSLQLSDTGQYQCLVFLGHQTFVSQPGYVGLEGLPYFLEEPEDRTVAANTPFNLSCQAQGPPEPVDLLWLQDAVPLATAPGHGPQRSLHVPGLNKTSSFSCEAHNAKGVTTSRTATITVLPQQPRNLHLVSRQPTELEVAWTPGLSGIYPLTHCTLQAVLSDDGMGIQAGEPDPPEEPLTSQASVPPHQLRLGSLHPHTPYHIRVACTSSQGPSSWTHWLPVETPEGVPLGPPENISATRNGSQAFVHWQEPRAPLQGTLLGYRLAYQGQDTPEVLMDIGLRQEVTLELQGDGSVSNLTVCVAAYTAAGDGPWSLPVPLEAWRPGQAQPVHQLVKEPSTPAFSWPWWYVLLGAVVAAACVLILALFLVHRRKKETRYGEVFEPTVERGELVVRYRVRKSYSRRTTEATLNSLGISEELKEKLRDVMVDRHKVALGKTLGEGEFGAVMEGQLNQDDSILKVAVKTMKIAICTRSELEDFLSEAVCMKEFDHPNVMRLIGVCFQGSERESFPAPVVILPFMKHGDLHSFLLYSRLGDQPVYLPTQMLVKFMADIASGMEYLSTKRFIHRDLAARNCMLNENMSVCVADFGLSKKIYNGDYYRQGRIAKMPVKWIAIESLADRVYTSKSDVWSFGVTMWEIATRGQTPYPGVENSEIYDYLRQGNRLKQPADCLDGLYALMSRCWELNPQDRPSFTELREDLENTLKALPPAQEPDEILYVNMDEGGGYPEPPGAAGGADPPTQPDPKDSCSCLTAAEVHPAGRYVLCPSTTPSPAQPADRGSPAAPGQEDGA

panel of 442 kinases [9] = target: T9, panel of 442 kinases (Homo sapiens, UniProt P53355); details: DAPK1; for remaining activity at 1 µM: read-out: % of control at 1 µM
T9 construct: purchased Ambit Biosciences (scanMAXX KINOMEscan)

panel of 442 kinases [10] = target: T10, panel of 442 kinases (Homo sapiens, UniProt Q9H4B4); details: kinase PLK3; for remaining activity at 1 µM: read-out: PLK3 (% of control at 1 µM)
T10 construct: purchased Ambit Biosciences (scanMAXX KINOMEscan)
T10 sequence (Q9H4B4 whole entry): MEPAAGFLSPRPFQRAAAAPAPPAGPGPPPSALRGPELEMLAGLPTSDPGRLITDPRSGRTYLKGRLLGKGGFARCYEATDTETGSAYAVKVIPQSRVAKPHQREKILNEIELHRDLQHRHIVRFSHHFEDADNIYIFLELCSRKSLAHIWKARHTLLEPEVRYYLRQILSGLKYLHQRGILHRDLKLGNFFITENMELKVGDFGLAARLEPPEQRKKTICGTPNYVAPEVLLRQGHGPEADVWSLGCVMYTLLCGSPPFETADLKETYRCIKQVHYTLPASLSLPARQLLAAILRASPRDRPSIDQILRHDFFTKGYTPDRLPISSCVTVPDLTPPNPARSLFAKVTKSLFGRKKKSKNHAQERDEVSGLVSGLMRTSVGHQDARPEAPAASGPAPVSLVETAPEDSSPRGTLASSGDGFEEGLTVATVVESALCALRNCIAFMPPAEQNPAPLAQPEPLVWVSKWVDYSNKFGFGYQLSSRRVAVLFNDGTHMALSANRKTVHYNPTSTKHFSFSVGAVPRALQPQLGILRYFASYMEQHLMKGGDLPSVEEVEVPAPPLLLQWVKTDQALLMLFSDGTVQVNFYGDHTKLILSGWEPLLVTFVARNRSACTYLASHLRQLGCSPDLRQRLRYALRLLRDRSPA

panel of 442 kinases [11] = target: T11, panel of 442 kinases (Homo sapiens, UniProt P04629); details: kinase TRKA; for remaining activity at 1 µM: read-out: TRKA (% of control at 1 µM)
T11 construct: purchased Ambit Biosciences (scanMAXX KINOMEscan)
T11 sequence (P04629 33-796): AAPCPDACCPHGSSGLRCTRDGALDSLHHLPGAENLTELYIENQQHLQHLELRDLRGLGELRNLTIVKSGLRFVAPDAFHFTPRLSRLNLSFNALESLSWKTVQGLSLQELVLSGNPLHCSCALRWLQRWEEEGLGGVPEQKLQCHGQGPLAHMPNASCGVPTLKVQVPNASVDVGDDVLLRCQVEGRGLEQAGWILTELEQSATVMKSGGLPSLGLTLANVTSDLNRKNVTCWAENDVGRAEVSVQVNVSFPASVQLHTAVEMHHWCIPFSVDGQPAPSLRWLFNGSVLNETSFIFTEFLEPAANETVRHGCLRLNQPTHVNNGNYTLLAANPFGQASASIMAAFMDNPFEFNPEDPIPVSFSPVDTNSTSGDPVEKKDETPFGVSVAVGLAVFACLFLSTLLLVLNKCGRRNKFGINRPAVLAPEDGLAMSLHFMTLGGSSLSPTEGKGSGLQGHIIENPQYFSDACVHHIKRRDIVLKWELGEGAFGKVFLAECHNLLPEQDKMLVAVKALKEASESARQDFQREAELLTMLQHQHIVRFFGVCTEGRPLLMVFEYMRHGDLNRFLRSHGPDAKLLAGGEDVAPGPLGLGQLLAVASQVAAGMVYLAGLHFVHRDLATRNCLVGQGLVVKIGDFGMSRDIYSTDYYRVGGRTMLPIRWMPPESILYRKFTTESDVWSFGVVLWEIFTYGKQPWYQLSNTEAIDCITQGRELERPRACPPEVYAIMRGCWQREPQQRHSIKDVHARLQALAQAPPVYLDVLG

panel of 442 kinases [12] = target: T12, panel of 442 kinases (Homo sapiens, UniProt P08922); details: kinase ROS1; for remaining activity at 1 µM: read-out: ROS1 (% of control at 1 µM)
T12 construct: purchased Ambit Biosciences (scanMAXX KINOMEscan)

panel of 442 kinases [13] = target: T13, panel of 442 kinases (Homo sapiens, UniProt P45983); details: kinase JNK1; for remaining activity at 1 µM: read-out: % of control at 1 µM
T13 construct: purchased Ambit Biosciences (scanMAXX KINOMEscan)

[14] = 10 µM, read-out: % of control at 10 µM

T1 sequence (Q9Y2H1 whole entry): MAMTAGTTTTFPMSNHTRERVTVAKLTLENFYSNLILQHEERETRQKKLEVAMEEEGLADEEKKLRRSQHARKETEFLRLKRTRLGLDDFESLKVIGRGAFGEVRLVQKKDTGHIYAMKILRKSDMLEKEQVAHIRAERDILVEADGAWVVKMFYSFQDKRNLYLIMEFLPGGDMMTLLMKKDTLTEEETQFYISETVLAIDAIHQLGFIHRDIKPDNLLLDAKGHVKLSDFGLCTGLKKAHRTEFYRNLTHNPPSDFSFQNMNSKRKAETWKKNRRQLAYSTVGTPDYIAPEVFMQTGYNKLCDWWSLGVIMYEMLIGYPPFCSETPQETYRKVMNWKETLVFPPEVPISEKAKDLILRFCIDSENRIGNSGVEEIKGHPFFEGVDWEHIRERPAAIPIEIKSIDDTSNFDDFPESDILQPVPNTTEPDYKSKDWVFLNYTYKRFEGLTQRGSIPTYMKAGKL

`Nc1cc(C(F)(F)F)c(-c2cc(N3CCOCC3)nc(N3CCOCC3)n2)cn1` [Buparlisib] gave a remaining activity at 1 µM (panel of 442 kinases [1]) of 90%, a remaining activity at 10 µM (panel of 442 kinases [1]; [14]) of 100% and a remaining activity at 1 µM (panel of 442 kinases [2]) of 100%. The remaining activity at 10 µM (panel of 442 kinases [2]; [14]) was 100%, the remaining activity at 1 µM (panel of 442 kinases [3]) was 100% and the remaining activity at 10 µM (panel of 442 kinases [3]; 10 µM, read-out: RIOK2 (% of control at 10 µM)) was 100%. It also gave a remaining activity at 1 µM (panel of 442 kinases [4]) of 99%, a remaining activity at 10 µM (panel of 442 kinases [4]; 10 µM, read-out: TBK1 (% of control at 10 µM)) of 100% and a remaining activity at 1 µM (panel of 442 kinases [5]) of 90%. For the same molecule, the remaining activity at 10 µM (panel of 442 kinases [5]; [14]) was 70%, the remaining activity at 1 µM (panel of 442 kinases [6]) was 85% and the remaining activity at 10 µM (panel of 442 kinases [6]; [14]) was 100%. It also gave a remaining activity at 1 µM (panel of 442 kinases [7]) of 74%, a remaining activity at 10 µM (panel of 442 kinases [7]; [14]) of 96% and a remaining activity at 1 µM (panel of 442 kinases [8]) of 89%. For the same molecule, the remaining activity at 10 µM (panel of 442 kinases [8]; [14]) was 100%, the remaining activity at 1 µM (panel of 442 kinases [9]) was 93% and the remaining activity at 10 µM (panel of 442 kinases [9]; [14]) was 77%. The remaining activity at 1 µM (panel of 442 kinases [10]) was 97%, the remaining activity at 10 µM (panel of 442 kinases [10]; 10 µM, read-out: PLK3 (% of control at 10 µM)) was 100% and the remaining activity at 1 µM (panel of 442 kinases [11]) was 97%. For the same molecule, the remaining activity at 10 µM (panel of 442 kinases [11]; 10 µM, read-out: TRKA (% of control at 10 µM)) was 80%, the remaining activity at 1 µM (panel of 442 kinases [12]) was 84% and the remaining activity at 10 µM (panel of 442 kinases [12]; 10 µM, read-out: ROS1 (% of control at 10 µM)) was 79%. For the same molecule, the remaining activity at 1 µM (panel of 442 kinases [13]) was 98% and the remaining activity at 10 µM (panel of 442 kinases [13]; [14]) was 100%.

In the case of `COc1ncc(-c2ccc3nccc(-c4ccnnc4)c3c2)cc1NS(=O)(=O)c1ccc(F)cc1F` [Omipalisib], the remaining activity at 1 µM (panel of 442 kinases [1]) is reported as 100%, the remaining activity at 1 µM (panel of 442 kinases [2]) is reported as 100% and the remaining activity at 1 µM (panel of 442 kinases [3]) is reported as 100%. The remaining activity at 1 µM (panel of 442 kinases [4]) was 100%, the remaining activity at 1 µM (panel of 442 kinases [5]) was 100% and the remaining activity at 1 µM (panel of 442 kinases [6]) was 100%. It also gave a remaining activity at 1 µM (panel of 442 kinases [7]) of 95%, a remaining activity at 1 µM (panel of 442 kinases [8]) of 100% and a remaining activity at 1 µM (panel of 442 kinases [9]) of 93%. For the same molecule, the remaining activity at 1 µM (panel of 442 kinases [10]) was 82%, the remaining activity at 1 µM (panel of 442 kinases [11]) was 80% and the remaining activity at 1 µM (panel of 442 kinases [12]) was 100%. It also gave a remaining activity at 1 µM (panel of 442 kinases [13]) of 100%.

`FC(F)c1nc2ccccc2n1-c1nc(N2CCOCC2)nc(N2CCOCC2)n1` [ZSTK474, 2-(difluoromethyl)-1-[4,6-di(4-morpholinyl)-1,3,5-triazin-2-yl]-1H-benzimidazole] was tested, and the remaining activity at 1 µM (panel of 442 kinases [1]) was 100%, the remaining activity at 1 µM (panel of 442 kinases [2]) was 85% and the remaining activity at 1 µM (panel of 442 kinases [3]) was 39%. It also gave a remaining activity at 1 µM (panel of 442 kinases [4]) of 100%, a remaining activity at 1 µM (panel of 442 kinases [5]) of 98% and a remaining activity at 1 µM (panel of 442 kinases [6]) of 100%. The remaining activity at 1 µM (panel of 442 kinases [7]) was 100%, the remaining activity at 1 µM (panel of 442 kinases [8]) was 93% and the remaining activity at 1 µM (panel of 442 kinases [9]) was 86%. The remaining activity at 1 µM (panel of 442 kinases [10]) was 83%, the remaining activity at 1 µM (panel of 442 kinases [11]) was 100% and the remaining activity at 1 µM (panel of 442 kinases [12]) was 100%. The remaining activity at 1 µM (panel of 442 kinases [13]) was 86%.

Molecule `Cn1c(=O)n(-c2ccc(C(C)(C)C#N)cc2)c2c3cc(-c4cnc5ccccc5c4)ccc3ncc21` [Dactolisib, 2-methyl-2-[4-(3-methyl-2-oxo-8-quinolin-3-yl-2,3-dihydroimidazo[4,5-c]quinolin-1-yl)-phenyl] propionitrile] has a remaining activity at 1 µM (panel of 442 kinases [1]) of 100%, a remaining activity at 1 µM (panel of 442 kinases [2]) of 100% and a remaining activity at 1 µM (panel of 442 kinases [3]) of 65%. It also gave a remaining activity at 1 µM (panel of 442 kinases [4]) of 93%, a remaining activity at 1 µM (panel of 442 kinases [5]) of 64% and a remaining activity at 1 µM (panel of 442 kinases [6]) of 100%. It also gave a remaining activity at 1 µM (panel of 442 kinases [7]) of 79%, a remaining activity at 1 µM (panel of 442 kinases [8]) of 48% and a remaining activity at 1 µM (panel of 442 kinases [9]) of 76%. It also gave a remaining activity at 1 µM (panel of 442 kinases [10]) of 88%, a remaining activity at 1 µM (panel of 442 kinases [12]) of 100% and a remaining activity at 1 µM (panel of 442 kinases [13]) of 84%.
